Reference: patent publication US20040156782A1, “Methods of using indocyanine green (ICG) dye” (Akorn, Inc., priority 2003, published 2004)

Assay: HPLC stability of reconstituted aqueous ICG composition (% label claim over time)
Assay type: physicochemical
Description: The HPLC testing utilized a Supelcosil LC-18-DB, 3 μm, 4.6×150 mm HPLC column and a supelcosil LC-18-DB, 3 μm, 4.6×33 mm guard column. The mobile phase, which consists of 0.1% phosphoric acid (Solvent A) and 100% acetonitrile (Solvent B), was fed to the columns at a flow rate of 1 ml/min, with the mobile phase composition being varied as follows:
An ICG standard was then prepared by dissolving approximately 5.5 mg of ICG (IC-GREEN™) in 10.0 ml of a diluent comprising acetonitrile and water in a 1:1 ratio. The ICG samples to be measured (IC-GREEN™) were then prepared by diluting each sample in the same diluent (1:1 acetonitrile to water) such that the estimated concentration of ICG in each sample was approximately 0.5 mg/ml. The dilution factor was determined by dividing the final volume of the sample by the volume of the ICG sample aliquot initially added. Then, five 10.0 μL quantities of the ICG standard were injected into the HPLC column and the mean peak area was determined. Next, a series of 10.0 μL injections of the samples was completed, and the mean peak area for each sample was determined. The ICG concentration for each sample was then calculated using the following formula:
[ICG in mg/ml]=[STD](ASX/ASTD)(DF)
where [STD] is the ICG concentration of the standard, ASX is the mean peak area of the sample, ASTD is the mean peak area of the standard, and DF is the dilution factor. The relative concentration of ICG present in the sample (wt. % label claim) was then determined by dividing the concentration of the sample by the initial concentration upon dissolution, then multiplying the result by one hundred.

CC1(C)C(/C=C/C=C/C=C/C=C2\N(CCCCS(=O)(=O)O)c3ccc4ccccc4c3C2(C)C)=[N+](CCCCS(=O)(=O)[O-])c2ccc3ccccc3c21 [ICG, Indocyanine green]
stability of aqueous compositions having relatively high ICG concentrations relative to relatively low ICG concentrations: more stable | time after reconstitution at which ICG content corresponds to 95 wt. % based on the label claim (5 mg/ml reconstituted aqueous ICG composition): about 18 hours | relative concentration (% label claim) of ICG in aqueous ICG composition (for more than ten hours after the lyophilized ICG is reconstituted): above 90 wt. %
